Assay results published in PMC7782168, “Synthesis, telomerase inhibitory and anticancer activity of new 2-phenyl-4H-chromone derivatives containing 1,3,4-oxadiazole moiety” (Journal of Enzyme Inhibition and Medicinal Chemistry, 2020).

Experiments:
telomerase = molecular target: T1, telomerase (Homo sapiens, UniProt O14746); assay: Telomerase activity assay using MGC-803 cells extract; assay type: biochemical; conditions: mean ± SD
T1 construct: assayed for telomerase activity using MGC-803 cells extract; endogenous in cells; host or cells: MGC-803 cell extract
T1 sequence (O14746 whole entry): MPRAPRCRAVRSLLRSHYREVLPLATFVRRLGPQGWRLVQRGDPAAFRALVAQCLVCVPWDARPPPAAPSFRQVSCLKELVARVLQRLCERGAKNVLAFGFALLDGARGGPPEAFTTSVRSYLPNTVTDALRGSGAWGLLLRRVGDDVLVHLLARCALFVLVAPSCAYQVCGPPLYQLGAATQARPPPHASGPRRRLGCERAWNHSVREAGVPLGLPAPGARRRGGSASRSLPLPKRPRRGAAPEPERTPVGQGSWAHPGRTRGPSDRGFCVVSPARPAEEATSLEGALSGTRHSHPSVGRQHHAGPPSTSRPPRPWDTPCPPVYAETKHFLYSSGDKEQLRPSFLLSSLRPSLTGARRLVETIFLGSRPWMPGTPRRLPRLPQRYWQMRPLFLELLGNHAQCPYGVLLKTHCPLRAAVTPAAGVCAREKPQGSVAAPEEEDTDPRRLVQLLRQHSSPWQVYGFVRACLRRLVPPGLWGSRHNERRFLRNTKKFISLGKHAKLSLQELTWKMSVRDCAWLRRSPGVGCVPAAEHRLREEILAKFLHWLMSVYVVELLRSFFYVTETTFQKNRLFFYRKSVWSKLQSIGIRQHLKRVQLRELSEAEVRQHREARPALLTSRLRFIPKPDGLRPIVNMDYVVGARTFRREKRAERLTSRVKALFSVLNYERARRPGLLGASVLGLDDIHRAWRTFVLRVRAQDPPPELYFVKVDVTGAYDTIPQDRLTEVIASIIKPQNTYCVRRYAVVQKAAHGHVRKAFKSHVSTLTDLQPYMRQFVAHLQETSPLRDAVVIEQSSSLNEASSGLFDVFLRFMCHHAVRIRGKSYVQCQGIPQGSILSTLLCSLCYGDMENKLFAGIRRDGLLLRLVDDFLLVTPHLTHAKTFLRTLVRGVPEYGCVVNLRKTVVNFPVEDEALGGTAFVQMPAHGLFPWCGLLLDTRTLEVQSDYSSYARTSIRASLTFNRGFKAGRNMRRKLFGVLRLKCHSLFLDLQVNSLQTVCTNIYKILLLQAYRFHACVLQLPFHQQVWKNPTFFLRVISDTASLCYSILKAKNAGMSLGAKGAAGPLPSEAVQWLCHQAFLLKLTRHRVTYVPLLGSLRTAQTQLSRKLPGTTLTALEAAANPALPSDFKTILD
T1 sequence (O60832 2-514 partner limits assumed): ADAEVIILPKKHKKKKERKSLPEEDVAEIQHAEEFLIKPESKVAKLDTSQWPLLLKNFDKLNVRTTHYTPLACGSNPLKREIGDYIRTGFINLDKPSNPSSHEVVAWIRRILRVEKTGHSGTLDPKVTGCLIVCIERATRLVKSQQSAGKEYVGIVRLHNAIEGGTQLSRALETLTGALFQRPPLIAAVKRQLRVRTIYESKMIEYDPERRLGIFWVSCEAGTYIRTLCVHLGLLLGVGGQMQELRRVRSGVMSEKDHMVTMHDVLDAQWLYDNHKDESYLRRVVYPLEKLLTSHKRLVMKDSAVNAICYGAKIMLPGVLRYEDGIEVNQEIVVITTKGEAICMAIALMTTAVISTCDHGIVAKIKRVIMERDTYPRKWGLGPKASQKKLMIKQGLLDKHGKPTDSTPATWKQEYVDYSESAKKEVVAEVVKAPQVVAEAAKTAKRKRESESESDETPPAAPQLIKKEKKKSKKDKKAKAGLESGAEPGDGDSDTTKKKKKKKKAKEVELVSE
T1 sequence (Q9NPE3 whole entry partner): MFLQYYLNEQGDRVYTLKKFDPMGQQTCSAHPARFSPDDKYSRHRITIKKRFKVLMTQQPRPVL
T1 sequence (Q9NX24 whole entry partner): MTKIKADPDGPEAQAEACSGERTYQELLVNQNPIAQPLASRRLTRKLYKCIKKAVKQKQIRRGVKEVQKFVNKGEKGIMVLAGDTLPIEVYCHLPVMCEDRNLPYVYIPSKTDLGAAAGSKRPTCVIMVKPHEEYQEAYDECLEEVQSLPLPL
T1 sequence (Q9NY12 whole entry partner): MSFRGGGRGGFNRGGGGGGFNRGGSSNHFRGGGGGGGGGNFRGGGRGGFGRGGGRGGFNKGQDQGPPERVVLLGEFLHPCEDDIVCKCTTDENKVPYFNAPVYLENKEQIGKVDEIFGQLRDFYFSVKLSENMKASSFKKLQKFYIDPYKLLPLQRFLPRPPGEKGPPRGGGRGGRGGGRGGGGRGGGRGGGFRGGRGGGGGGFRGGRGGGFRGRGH

SMILES | melting point | IC50 (telomerase)
COc1cc(OC)c2c(=O)c(OCC(=O)Nc3nnc(-c4cccs4)o3)c(-c3cc(OC)c(OC)c(OC)c3)oc2c1 [A32, 2–(5,7-dimethoxy-4-oxo-2–(3,4,5-trimethoxyphenyl)-4H-chromen-3-yloxy)-N-(5-(thiophen-2-yl)-1,3,4-oxadiazol-2-yl)acetamide] | 224 to 226 °C | 2.22 ± 0.51 µM
COc1cc(OC)c2c(=O)c(OCC(=O)Nc3nnc(-c4cccc([N+](=O)[O-])c4)o3)c(-c3cc(OC)c(OC)c(OC)c3)oc2c1 [A14, 2–(5,7-dimethoxy-4-oxo-2–(3,4,5-trimethoxyphenyl)-4H-chromen-3-yloxy)-N-(5–(3-nitrophenyl)-1,3,4-oxadiazol-2-yl)acetamide] | 233 to 235 °C | 4.11 ± 0.6 µM
COc1cc(OC)c2c(=O)c(OCC(=O)Nc3nnc(-c4ccccc4C(F)(F)F)o3)c(-c3cc(OC)c(OC)c(OC)c3)oc2c1 [A18, 2–(5,7-dimethoxy-4-oxo-2–(3,4,5-trimethoxyphenyl)-4H-chromen-3-yloxy)-N-(5–(2-(trifluoromethyl)phenyl)-1,3,4-oxadiazol-2-yl)acetamide] | 191 to 193 °C | 1.07 ± 0.2 µM
COc1cc(OC)c2c(=O)c(OCC(=O)Nc3nnc(-c4ccccc4C)o3)c(-c3cc(OC)c(OC)c(OC)c3)oc2c1 [A13, 2–(5,7-dimethoxy-4-oxo-2–(3,4,5-trimethoxyphenyl)-4H-chromen-3-yloxy)-N-(5-o-tolyl-1,3,4-oxadiazol-2-yl)acetamide] | 205 to 207 °C | 25.1 ± 2.01 µM
COc1cc(OC)c2c(=O)c(OCC(=O)Nc3nnc(-c4ccc(Br)cc4)o3)c(-c3cc(OC)c(OC)c(OC)c3)oc2c1 [A8, N-(5–(4-bromophenyl)-1,3,4-oxadiazol-2-yl)-2–(5,7-dimethoxy-4-oxo-2–(3,4,5-trimethoxyphenyl)-4H-chromen-3-yloxy)acetamide] | 234 to 236 °C | 1.22 ± 0.29 µM
COc1cc(OC)c2c(=O)c(OCC(=O)Nc3nnc(-c4ccc(C)cc4)o3)c(-c3cc(OC)c(OC)c(OC)c3)oc2c1 [A11, 2–(5,7-dimethoxy-4-oxo-2–(3,4,5-trimethoxyphenyl)-4H-chromen-3-yloxy)-N-(5-p-tolyl-1,3,4-oxadiazol-2-yl)acetamide] | 225 to 227 °C | 2.35 ± 0.48 µM

Now from value to molecule:

melting point | IC50 (telomerase) | SMILES
207 to 209 °C | 20 ± 1.96 µM | COc1cc(OC)c2c(=O)c(OCC(=O)Nc3nnc(-c4cccc(OC(F)(F)F)c4)o3)c(-c3ccc(OC)c(OC)c3)oc2c1 [B20, 2–(2-(3,4-dimethoxyphenyl)-5,7-dimethoxy-4-oxo-4H-chromen-3-yloxy)-N-(5–(3-(trifluoromethoxy)phenyl)-1,3,4-oxadiazol-2-yl)acetamide]
156 to 158 °C | > 60 µM | COc1cc(OC)c2c(=O)c(OCC(=O)Nc3nnc(-c4cccc(OCc5ccccc5)c4)o3)c(-c3ccc(OC)c(OC)c3)oc2c1 [B30, N-(5–(3-(benzyloxy)phenyl)-1,3,4-oxadiazol-2-yl)-2–(2-(3,4-dimethoxyphenyl)-5,7-dimethoxy-4-oxo-4H-chromen-3-yloxy)acetamide]
221 to 223 °C | > 60 µM | COc1cc(OC)c2c(=O)c(OCC(=O)Nc3nnc(-c4cccc(C)c4)o3)c(-c3ccc(OC)c(OC)c3)oc2c1 [B12, 2–(2-(3,4-dimethoxyphenyl)-5,7-dimethoxy-4-oxo-4H-chromen-3-yloxy)-N-(5-m-tolyl-1,3,4-oxadiazol-2-yl)acetamide]
239 to 241 °C | 5.65 ± 1.77 µM | COc1cc(OC)c2c(=O)c(OCC(=O)Nc3nnc(-c4ccc(C)cc4)o3)c(-c3ccc(OC)c(OC)c3)oc2c1 [B11, 2–(2-(3,4-dimethoxyphenyl)-5,7-dimethoxy-4-oxo-4H-chromen-3-yloxy)-N-(5-p-tolyl-1,3,4-oxadiazol-2-yl)acetamide]
230 to 232 °C | > 60 µM | COc1cc(OC)c2c(=O)c(OCC(=O)Nc3nnc(-c4ccc(Cl)c(Cl)c4)o3)c(-c3ccc(OC)c(OC)c3)oc2c1 [B25, N-(5–(3,4-dichlorophenyl)-1,3,4-oxadiazol-2-yl)-2–(2-(3,4-dimethoxyphenyl)-5,7-dimethoxy-4-oxo-4H-chromen-3-yloxy)acetamide]
